{"source": "ChEMBL document CHEMBL1649556", "about": "“Lack of antimicrobial activity by the antiretroviral drug nevirapine against common bacterial pathogens” (2009)", "key": {"Streptococcus pneumoniae [1]": {"test_system": "Streptococcus pneumoniae", "assay": "Antibacterial activity against Streptococcus pneumoniae after 18 to 24 hrs by agar dilution method", "type": "functional"}, "Staphylococcus aureus [2]": {"test_system": "Staphylococcus aureus", "assay": "Antibacterial activity against Staphylococcus aureus ATCC 29213 after 18 to 24 hrs by agar dilution method", "type": "functional"}, "[3]": {"assay": "Antibacterial activity against Salmonella group B ATCC 31194 after 18 to 24 hrs by agar dilution method", "type": "functional", "details": "Salmonella sp. 'group B'"}, "Staphylococcus aureus [4]": {"test_system": "Staphylococcus aureus", "assay": "Antibacterial activity against Staphylococcus aureus after 18 to 24 hrs by agar dilution method", "type": "functional"}, "[5]": {"test_system": "Human immunodeficiency virus", "assay": "Antiviral activity against HIV infected in human PBMC assessed as decrease in viral p24 antigen production at 0.25 to 4 ug/ml after 14 days by ELISA", "type": "functional, organism-based"}, "Salmonella": {"test_system": "Salmonella", "assay": "Antibacterial activity against Salmonella group D after 18 to 24 hrs by agar dilution method", "type": "functional"}, "Haemophilus influenzae [6]": {"test_system": "Haemophilus influenzae", "assay": "Antibacterial activity against Haemophilus influenzae […] after 18 to 24 hrs by agar dilution method", "type": "functional"}, "Escherichia coli [7]": {"test_system": "Escherichia coli", "assay": "Antibacterial activity against Escherichia coli after 18 to 24 hrs by agar dilution method", "type": "functional"}, "Shigella flexneri": {"test_system": "Shigella flexneri", "assay": "Antibacterial activity against Shigella flexneri group B after 18 to 24 hrs by agar dilution method", "type": "functional"}, "Haemophilus influenzae [8]": {"test_system": "Haemophilus influenzae", "assay": "Antibacterial activity against Haemophilus influenzae after 18 to 24 hrs by agar dilution method", "type": "functional"}, "Shigella sonnei": {"test_system": "Shigella sonnei", "assay": "Antibacterial activity against Shigella sonnei […] after 18 to 24 hrs by agar dilution method", "type": "functional"}, "Streptococcus pneumoniae [9]": {"test_system": "Streptococcus pneumoniae", "assay": "Antibacterial activity against Streptococcus pneumoniae ATCC 49619 after 18 to 24 hrs by agar dilution method", "type": "functional"}, "Escherichia coli [10]": {"test_system": "Escherichia coli", "assay": "Antibacterial activity against Escherichia coli ATCC 25922 after 18 to 24 hrs by agar dilution method", "type": "functional"}}, "note": "Activity calls are given as the source filed them. The rule behind the calls is not given here.", "data": [{"smiles": "Cc1ccnc2c1NC(=O)c1cccnc1N2C1CC1", "note": "[NEVIRAPINE]", "values": [{"measurement": "MIC", "setting": "Streptococcus pneumoniae [1]", "value": 4, "unit": "µg/mL"}, {"measurement": "MIC", "setting": "Staphylococcus aureus [2]", "value": 4, "unit": "µg/mL"}, {"measurement": "MIC", "setting": "[3]", "value": 4, "unit": "µg/mL"}, {"measurement": "MIC", "setting": "Staphylococcus aureus [4]", "value": 4, "unit": "µg/mL"}, {"measurement": "inhibition", "setting": "[5]", "value": "Active"}, {"measurement": "MIC", "setting": "Salmonella", "value": 4, "unit": "µg/mL"}, {"measurement": "MIC", "setting": "Haemophilus influenzae [6]", "value": 4, "unit": "µg/mL"}, {"measurement": "MIC", "setting": "Escherichia coli [7]", "value": 4, "unit": "µg/mL"}, {"measurement": "MIC", "setting": "Shigella flexneri", "value": 4, "unit": "µg/mL"}, {"measurement": "MIC", "setting": "Haemophilus influenzae [8]", "value": 4, "unit": "µg/mL"}, {"measurement": "MIC", "setting": "Shigella sonnei", "value": 4, "unit": "µg/mL"}, {"measurement": "MIC", "setting": "Streptococcus pneumoniae [9]", "value": 4, "unit": "µg/mL"}, {"measurement": "MIC", "setting": "Escherichia coli [10]", "value": 4, "unit": "µg/mL"}]}]}
